Data reported in patent US20230219986A1, “NOVEL AMINOPYRIMIDINE EGFR INHIBITOR” (QILU PHARMACEUTICAL CO., LTD., priority 2020, published 2023).
Read-outs that look alike come from different tables or passages of the source.

Experiments:
[1] = target: Ba/F3 L858R/T790M/C797S EGFR triple mutant cell line (Homo sapiens, UniProt P00533, T790M/C797S/L858R, cells depend on it); experiment: Cell proliferation inhibition experiment (CellTiter-Glo), Ba/F3 L858R/T790M/C797S; format: cell-based; details: 72 hours, Cell Titer-Glo, read-out: Ba/F3 (L858R/T790M/C797S) IC50
wild-type EGFR = target: T1, wild-type EGFR (Homo sapiens, UniProt P00533); experiment: Enzymology experiment in vitro (HTRF/FRET kinase activity), wild-type EGFR; format: biochemical; details: HTRF KinEASE-TK
T1 construct: purchased Signalchem
Procedure, shortened: (§1)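 HTRF KinEASE-TK format: EGFR enzyme preincubated with compound 10 min at room temperature, then peptide substrate plus ATP added for 40 min. Detection with EDTA, XL665-streptavidin and Eu³⁺-labeled antibody for 1 h.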

[2] = target: Ba/F3 De119/T790M/C797S EGFR triple mutant cell line (Homo sapiens, UniProt P00533, T790M/C797S, cells depend on it, form not given); experiment: Cell proliferation inhibition experiment (CellTiter-Glo), Ba/F3 De119/T790M/C797S; format: cell-based; details: Ba/F3 Del19/T790M/C797S EGFR triple mutant cells, 72 hours, Cell Titer-Glo; read-out: Ba/F3 (Del19/T790M/C797S) IC50
[3] = target: T2, L858R/T790M/C797S triple mutant EGFR (Homo sapiens, UniProt P00533, C797S/L858R/T790M); experiment: Enzymology experiment in vitro (HTRF/FRET kinase activity), L858R/T790M/C797S triple mutant EGFR; format: biochemical; details: HTRF KinEASE-TK
T2 construct: purchased Signalchem
Procedure, shortened: as §1

[4] = tested on: EGFR wild-type cell line A431; experiment: Cell proliferation inhibition experiment (CellTiter-Glo), A431; format: cell-based; details: Homo sapiens, A431 cells, Cell Titer-Glo, read-out: A431 EGFR WT IC50
Procedure, shortened: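 A431 cells, 800 per well, were cultured 24 h and then exposed to serially diluted compound (0.1% DMSO final) for 72 h at 37° C., 5% CO2.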

[5] = read-out: EGFR (L858R/T790M/C797S) IC50

Ba/F3 De119/T790M/C797S EGFR triple mutant cell line, sequence (P00533 with tags, fused parts or gaps DEL746-750/T790M/C797S, form open): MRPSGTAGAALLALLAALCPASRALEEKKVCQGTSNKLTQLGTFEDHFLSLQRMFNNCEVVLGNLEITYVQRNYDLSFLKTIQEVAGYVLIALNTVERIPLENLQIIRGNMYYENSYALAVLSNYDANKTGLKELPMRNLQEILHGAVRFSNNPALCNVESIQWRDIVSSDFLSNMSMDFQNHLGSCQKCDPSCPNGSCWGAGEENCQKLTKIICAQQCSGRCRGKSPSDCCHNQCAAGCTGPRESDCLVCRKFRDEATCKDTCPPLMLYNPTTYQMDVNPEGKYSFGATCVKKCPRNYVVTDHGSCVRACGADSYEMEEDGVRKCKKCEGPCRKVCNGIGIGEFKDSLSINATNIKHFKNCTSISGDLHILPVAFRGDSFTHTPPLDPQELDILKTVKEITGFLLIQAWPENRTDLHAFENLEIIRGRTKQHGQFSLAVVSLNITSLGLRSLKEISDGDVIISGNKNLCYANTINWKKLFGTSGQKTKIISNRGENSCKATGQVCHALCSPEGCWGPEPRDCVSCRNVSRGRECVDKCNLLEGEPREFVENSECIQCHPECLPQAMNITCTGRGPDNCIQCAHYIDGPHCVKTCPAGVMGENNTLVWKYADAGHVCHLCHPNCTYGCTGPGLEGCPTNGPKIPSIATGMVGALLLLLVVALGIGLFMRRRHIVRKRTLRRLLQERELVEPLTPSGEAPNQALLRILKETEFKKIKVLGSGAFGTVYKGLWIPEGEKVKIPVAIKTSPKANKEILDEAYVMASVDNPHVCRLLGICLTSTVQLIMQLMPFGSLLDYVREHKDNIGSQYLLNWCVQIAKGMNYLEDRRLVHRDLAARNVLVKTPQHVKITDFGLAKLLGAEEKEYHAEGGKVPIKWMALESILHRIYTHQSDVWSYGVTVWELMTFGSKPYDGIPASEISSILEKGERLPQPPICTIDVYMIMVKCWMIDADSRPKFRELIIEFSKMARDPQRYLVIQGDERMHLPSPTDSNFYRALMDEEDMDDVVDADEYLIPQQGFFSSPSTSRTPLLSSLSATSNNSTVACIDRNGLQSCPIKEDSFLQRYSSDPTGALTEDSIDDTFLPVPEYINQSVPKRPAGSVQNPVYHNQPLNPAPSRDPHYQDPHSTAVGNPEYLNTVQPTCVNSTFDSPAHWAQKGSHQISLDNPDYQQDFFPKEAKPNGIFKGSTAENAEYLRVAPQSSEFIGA
Ba/F3 L858R/T790M/C797S EGFR triple mutant cell line, sequence (P00533 whole entry T790M/C797S/L858R): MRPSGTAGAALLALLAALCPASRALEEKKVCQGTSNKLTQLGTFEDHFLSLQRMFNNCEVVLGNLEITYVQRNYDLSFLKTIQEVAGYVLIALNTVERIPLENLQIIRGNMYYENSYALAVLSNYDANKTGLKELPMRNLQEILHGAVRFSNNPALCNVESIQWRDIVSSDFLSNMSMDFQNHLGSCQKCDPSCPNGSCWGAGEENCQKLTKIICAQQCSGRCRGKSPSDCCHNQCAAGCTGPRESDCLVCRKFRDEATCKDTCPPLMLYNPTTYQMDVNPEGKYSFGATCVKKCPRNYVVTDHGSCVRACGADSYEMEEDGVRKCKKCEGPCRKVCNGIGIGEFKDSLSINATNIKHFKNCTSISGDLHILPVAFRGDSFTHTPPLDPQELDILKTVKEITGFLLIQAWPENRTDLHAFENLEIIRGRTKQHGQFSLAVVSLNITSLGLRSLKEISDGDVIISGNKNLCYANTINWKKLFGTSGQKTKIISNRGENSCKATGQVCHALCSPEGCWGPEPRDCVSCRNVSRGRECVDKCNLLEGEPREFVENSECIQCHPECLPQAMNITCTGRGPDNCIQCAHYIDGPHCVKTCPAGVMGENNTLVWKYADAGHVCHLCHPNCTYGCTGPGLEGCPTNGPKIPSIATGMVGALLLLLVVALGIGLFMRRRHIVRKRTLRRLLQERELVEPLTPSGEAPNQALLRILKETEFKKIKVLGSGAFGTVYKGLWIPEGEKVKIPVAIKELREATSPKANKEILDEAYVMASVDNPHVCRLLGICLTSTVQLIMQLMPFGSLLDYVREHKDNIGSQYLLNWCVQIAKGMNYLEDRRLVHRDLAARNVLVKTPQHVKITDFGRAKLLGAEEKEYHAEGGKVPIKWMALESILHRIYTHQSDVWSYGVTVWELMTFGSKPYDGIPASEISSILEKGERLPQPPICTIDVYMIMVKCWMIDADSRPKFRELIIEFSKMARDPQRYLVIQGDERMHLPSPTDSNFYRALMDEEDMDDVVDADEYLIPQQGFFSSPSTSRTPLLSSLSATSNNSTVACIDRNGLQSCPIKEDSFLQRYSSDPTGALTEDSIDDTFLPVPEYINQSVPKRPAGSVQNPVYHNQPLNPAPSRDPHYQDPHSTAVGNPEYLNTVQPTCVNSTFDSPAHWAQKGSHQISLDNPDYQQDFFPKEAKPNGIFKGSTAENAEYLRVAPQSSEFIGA
T1 sequence (P00533 25-1210): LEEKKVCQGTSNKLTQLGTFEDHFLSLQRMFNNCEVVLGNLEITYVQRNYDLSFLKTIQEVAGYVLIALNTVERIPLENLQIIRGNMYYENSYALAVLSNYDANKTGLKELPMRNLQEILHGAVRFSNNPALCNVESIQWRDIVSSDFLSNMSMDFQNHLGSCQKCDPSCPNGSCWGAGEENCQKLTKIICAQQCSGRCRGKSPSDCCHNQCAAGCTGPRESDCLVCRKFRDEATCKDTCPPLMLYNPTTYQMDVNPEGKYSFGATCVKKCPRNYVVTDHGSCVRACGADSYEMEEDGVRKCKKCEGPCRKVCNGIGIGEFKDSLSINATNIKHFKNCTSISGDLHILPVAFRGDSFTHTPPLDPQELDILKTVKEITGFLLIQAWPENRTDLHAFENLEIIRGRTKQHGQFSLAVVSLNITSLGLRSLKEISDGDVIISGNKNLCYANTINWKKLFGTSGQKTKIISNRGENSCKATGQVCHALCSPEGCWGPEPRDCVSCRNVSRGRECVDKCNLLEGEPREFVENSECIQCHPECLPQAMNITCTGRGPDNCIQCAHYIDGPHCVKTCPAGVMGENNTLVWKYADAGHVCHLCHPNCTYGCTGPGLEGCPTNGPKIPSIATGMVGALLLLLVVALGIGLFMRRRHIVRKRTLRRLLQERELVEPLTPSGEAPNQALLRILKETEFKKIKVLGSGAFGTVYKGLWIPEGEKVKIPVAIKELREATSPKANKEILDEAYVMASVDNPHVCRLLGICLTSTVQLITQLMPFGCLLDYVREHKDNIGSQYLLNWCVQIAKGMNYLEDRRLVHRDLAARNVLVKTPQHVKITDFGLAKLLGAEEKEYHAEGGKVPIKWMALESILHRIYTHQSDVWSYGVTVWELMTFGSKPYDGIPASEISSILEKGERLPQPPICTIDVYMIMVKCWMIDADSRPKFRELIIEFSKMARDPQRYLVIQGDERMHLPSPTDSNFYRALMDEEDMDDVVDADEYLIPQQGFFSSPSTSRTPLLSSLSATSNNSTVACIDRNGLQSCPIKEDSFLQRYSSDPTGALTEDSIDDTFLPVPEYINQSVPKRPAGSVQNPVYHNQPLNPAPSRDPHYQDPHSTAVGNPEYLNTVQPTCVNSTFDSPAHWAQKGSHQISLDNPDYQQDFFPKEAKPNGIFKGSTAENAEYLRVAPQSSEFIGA
T2 sequence (P00533 25-1210 T790M/C797S/L858R): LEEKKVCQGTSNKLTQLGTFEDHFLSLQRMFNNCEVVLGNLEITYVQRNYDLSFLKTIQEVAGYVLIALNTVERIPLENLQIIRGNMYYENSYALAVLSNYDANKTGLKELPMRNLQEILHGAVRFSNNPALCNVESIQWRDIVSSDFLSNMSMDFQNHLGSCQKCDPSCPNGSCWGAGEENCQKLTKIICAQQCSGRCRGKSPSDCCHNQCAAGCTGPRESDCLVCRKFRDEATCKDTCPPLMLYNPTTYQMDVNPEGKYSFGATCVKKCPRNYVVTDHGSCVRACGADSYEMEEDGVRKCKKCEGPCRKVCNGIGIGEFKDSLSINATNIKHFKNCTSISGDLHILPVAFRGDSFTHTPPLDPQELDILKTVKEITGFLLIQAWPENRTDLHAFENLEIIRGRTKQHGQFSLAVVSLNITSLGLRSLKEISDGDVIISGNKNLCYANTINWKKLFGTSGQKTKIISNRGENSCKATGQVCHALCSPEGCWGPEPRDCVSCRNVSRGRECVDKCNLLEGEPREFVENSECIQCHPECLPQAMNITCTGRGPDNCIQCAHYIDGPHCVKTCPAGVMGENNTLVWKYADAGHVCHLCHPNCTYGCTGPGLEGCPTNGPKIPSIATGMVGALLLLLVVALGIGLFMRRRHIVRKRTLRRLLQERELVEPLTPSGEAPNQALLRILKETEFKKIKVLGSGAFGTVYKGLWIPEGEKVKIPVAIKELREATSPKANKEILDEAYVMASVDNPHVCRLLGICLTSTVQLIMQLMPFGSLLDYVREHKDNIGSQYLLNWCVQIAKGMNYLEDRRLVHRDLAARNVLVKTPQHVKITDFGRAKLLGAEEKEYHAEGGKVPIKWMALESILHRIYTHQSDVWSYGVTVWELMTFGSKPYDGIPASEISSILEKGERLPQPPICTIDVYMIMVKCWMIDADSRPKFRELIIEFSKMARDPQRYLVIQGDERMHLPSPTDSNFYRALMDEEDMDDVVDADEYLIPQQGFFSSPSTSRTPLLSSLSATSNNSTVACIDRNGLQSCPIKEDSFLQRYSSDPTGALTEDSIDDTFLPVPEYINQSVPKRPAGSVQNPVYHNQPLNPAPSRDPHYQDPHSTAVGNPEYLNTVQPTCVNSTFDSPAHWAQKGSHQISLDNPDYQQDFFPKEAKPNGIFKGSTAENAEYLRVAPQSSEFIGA

Row | Structure (SMILES) | GI50 [1] [nM] | IC50 (wild-type EGFR; read-out: EGFR (WT) IC50) [nM] | GI50 [2] [nM] | IC50 [3, 5] [nM] | IC50 ([4]; A-431, 72 h) [nM] | IC50 (wild-type EGFR; EGFR (WT) IC50(nM)) [nM] | IC50 ([3]; EGFR (L858R/T790M/C797S) IC50(nM)) [nM] | IC50 ([4]; A-431, 72 hours) [nM]
1 | COc1c(Nc2ncc(Br)c(Nc3ccc4nccnc4c3P(C)(C)=O)n2)cc(-c2cnn(C)c2)c(N2CCOCC2)c1F [compound 23] | 30.3 | 40.3 | 8.67 | 1.92 | 195 |  |  | 
2 | CCOP(C)(=O)c1c(Nc2nc(Nc3cc(-c4cnn(C)c4)c(N4CCOCC4)c(F)c3OC)ncc2Br)ccc2nccnc12 (stereo not drawn) [compound 24] | 139 |  | 45.2 |  |  | 346 | 11.4 | 567
3 | COc1cc(N2CCOCC2)c(-c2cnn(C)c2)cc1Nc1ncc(C(F)(F)F)c(Nc2ccc3nccnc3c2P(C)(C)=O)n1 [compound 25] | 8.64 | 18.7 | 2.41 | 0.19 | 159 |  |  | 
4 | COc1cc(N2CCC(OC)CC2)c(-c2cnn(C)c2)cc1Nc1ncc(Br)c(Nc2ccc3nccnc3c2P(C)(C)=O)n1 [compound 26] | 4.25 | 5.75 | 1.22 | 0.49 | 152 |  |  | 
5 | COCCN(C)c1cc(OC)c(Nc2ncc(Br)c(Nc3ccc4nccnc4c3P(C)(C)=O)n2)cc1-c1cnn(C)c1 [compound 28] | 13.7 | 15.4 | 4.73 | 0.13 | 362 |  |  | 
6 | CN(C)c1c(-c2cnn(C)c2)cc(Nc2ncc(Br)c(Nc3ccc4nccnc4c3P(C)(C)=O)n2)c2c1CCO2 [compound 29] | 4.25 | 3.37 | 1.29 | 0.06 | 121 |  |  | 
7 | COc1ncc(-c2cnn(C)c2)cc1Nc1ncc(Br)c(Nc2ccc3nccnc3c2P(C)(C)=O)n1 [compound 30] | 62.6 | 55.7 | 12.1 | 1.01 | 284 |  |  | 
8 | COc1cc(N(C)C)c(-c2cnn(C)c2)cc1Nc1ncc(Br)c(Nc2ccc3nccnc3c2P(C)(C)=O)n1 [compound 32] | 5.45 | 3.07 | 0.98 | 0.22 | 208 |  |  | 
9 | Cn1cc(-c2cc(Nc3ncc(Br)c(Nc4ccc5nccnc5c4P(C)(C)=O)n3)c(OCC(F)(F)F)nc2N2CCOCC2)cn1 [compound 34] | 8.94 | 15.2 | 2.04 | 0.27 | 462 |  |  | 
10 | CCOc1nc(N2CCOCC2)c(-c2cnn(C)c2)cc1Nc1ncc(Br)c(Nc2ccc3nccnc3c2P(C)(C)=O)n1 [compound 36] | 17.7 | 21.9 | 2.63 | 0.54 | 320 |  |  | 
11 | COc1nc(N2CCOCC2)c(-c2cn(C)nc2C)cc1Nc1ncc(Br)c(Nc2ccc3nccnc3c2P(C)(C)=O)n1 [compound 37] | 65.6 | 268 | 32.6 | 3.18 | 1140 |  |  | 
12 | Cc1nc(N2CCOCC2)c(-c2cnn(C)c2)cc1Nc1ncc(Br)c(Nc2ccc3nccnc3c2P(C)(C)=O)n1 [compound 38] | 32.6 | 17.8 | 10.2 | 0.23 | 295 |  |  | 
13 | Cn1cc(-c2cc3c(c(Nc4ncc(Br)c(Nc5ccc6nccnc6c5P(C)(C)=O)n4)c2)OCC3)cn1 [compound 39] | 9.69 | 7.45 | 4.07 | 0.06 | 41.3 |  |  | 
14 | COc1cc(C(=O)N(C)C)c(-c2cnn(C)c2)cc1Nc1ncc(Br)c(Nc2ccc3nccnc3c2P(C)(C)=O)n1 [compound 40] | 542 | 55.3 | 1130 | 2.85 | 1180 |  |  | 
15 | COc1cc(N2CCOCC2)c(-c2cn(C)nc2C)cc1Nc1ncc(Br)c(Nc2ccc3nccnc3c2P(C)(C)=O)n1 [compound 43] | 29.7 | 95.3 | 16.4 | 0.47 | 880 |  |  | 
16 | COc1cc(N2CCOCC2)c(-c2cnn(C)c2)nc1Nc1ncc(C)c(Nc2ccc3nccnc3c2P(C)(C)=O)n1 [compound 71] | 316 | 38.9 | 99.4 | 1.7 | > 10000 |  |  | 
17 | COc1cc(N2CCOCC2)c(-c2cnn(C)c2)cc1Nc1ncc(Cl)c(Nc2ccc3nccnc3c2P(C)(C)=O)n1 [compound 72] | 13.5 | 4.69 | 4.54 | 0.2 | 370 |  |  | 
18 | COc1cc(C23CCOCC2C3)c(-c2cnn(C)c2)cc1Nc1ncc(Br)c(Nc2ccc3nccnc3c2P(C)(C)=O)n1 (stereo not drawn) [compound 77] | 26.4 | 114 | 14.4 | 1.24 | 480 |  |  | 
19 | COc1cc(N2CCOCC2)c(-c2cnn(C(F)F)c2)cc1Nc1ncc(Br)c(Nc2ccc3nccnc3c2P(C)(C)=O)n1 [compound 78] | 14.4 | 45.5 | 6.76 | 0.53 | 550 |  |  | 
20 | COc1cc(N2CCOCC2)c(-c2cnn(C)c2)cc1Nc1ncc(F)c(Nc2ccc3nccnc3c2P(C)(C)=O)n1 [compound 81] | 32.4 | 7.68 | 19.1 | 0.34 | ≥ 10000 |  |  | 
21 | COc1cc(N2CCOCC2)c(-c2cccs2)cc1Nc1ncc(Br)c(Nc2ccc3nccnc3c2P(C)(C)=O)n1 [compound 83] | 58.9 | 1000 | 34 | 3.95 | 2420 |  |  | 
22 | COc1cc(F)c(-c2cnn(C)c2)cc1Nc1ncc(Br)c(Nc2ccc3nccnc3c2P(C)(C)=O)n1 [compound 84] | 20.7 | 16.6 | 12.5 | 0.33 | 392 |  |  | 
23 | COc1cc(N2CCOCC2)c(-c2cnn(C)c2)cc1Nc1ncc(Br)c(Nc2ccc3c(c2P(C)(C)=O)CC3)n1 [compound 85] | 9.29 | 9.06 | 6.15 | 0.11 | 381 |  |  | 
24 | COc1cc(N2CCOCC2)c(-c2ccsc2)cc1Nc1ncc(Br)c(Nc2ccc3nccnc3c2P(C)(C)=O)n1 [compound 86] | 136 | 345 | 87.8 | 15.6 | 3060 |  |  | 
25 | CN1CCC2(CC1)CCN(c1nc(OCC(F)(F)F)c(Nc3ncc(Br)c(Nc4ccc5nccnc5c4P(C)(C)=O)n3)cc1-c1cnn(C)c1)CC2 [compound 87] | 14.2 | 3.47 | 5.89 | 0.35 | 178 |  |  | 
26 | CCN1CCN(c2cc(OC)c(Nc3ncc(Br)c(Nc4ccc5nccnc5c4P(C)(C)=O)n3)cc2-c2cnn(C)c2)CC1 [compound 89] | 4.16 | 2.11 | 2.33 | 0.11 | 40.9 |  |  | 
27 | COCCN1CCN(c2cc(OC)c(Nc3ncc(Br)c(Nc4ccc5nccnc5c4P(C)(C)=O)n3)cc2-c2cnn(C)c2)CC1 [compound 92] | 2.85 | 2.34 | 0.54 | 0.03 | 31.8 |  |  | 
